# Laboratory results reported in US4250170A, “Antibacterial agents Bu-2349A and B and method of using same” (Bristol-Myers Company, priority 1979, dated 1981).
# Like-named read-outs stand apart in the source and are kept apart here.
# Key:
# Type in all cases: cell-based
# [1] = system: Bacillus subtilis PCI 219 (Bs-1); assay: MIC, two-fold agar dilution; details: 18 h
# Experimental: (§1) The minimum inhibitory concentrations (MIC) of Bu-2349A and B were determined against a wide variety of bacteria by the two-fold agar dilution method. Mueller-Hinton agar medium was generally used for the determination of bacterial MIC except for species of Streptococcus, Neisseria and Hemophilus for which Gonococcus agar medium (GC agar, Nissui Co., Tokyo) was used. Gifu anaerobe agar medium (GAM agar, Eiken Co., Tokyo) was used for anaerobic bacteria. The MIC's were determined after overnight incubation at 37° C. with an initial inoculum equivalent to a 10^-4 dilution of an 18-hour culture for the aerobic and anaerobic bacteria, except for Streptococcus, Neisseria and Hemophilus for which a 10^-2 dilution was used.
# (§2) The influence of inoculum size on MIC was tested on Mueller-Hinton agar using an inoculum of […], 10^-2 or 10^-4 dilution of the overnight culture of test organisms.
# (§3) The effect of media pH on the MIC's of Bu-2349A was determined at three pH levels (6, 7 and 8) using Mueller-Hinton agar.
# (§4) The media effect on the MIC's of Bu-2349A was tested using four kinds of assay media: Mueller-Hinton agar (MHA), nutrient agar (NA), heart infusion agar (HIA) and brain heart infusion agar (BHIA). The pH was adjusted at 7 and a 10^-4 dilution of overnight culture was used for the inoculum.
# [2] = system: Escherichia coli Juhl (Ec-3); assay: MIC, two-fold agar dilution; details: 18 h
# Experimental: as §1, §2, §3, §4
# [3] = system: Escherichia coli ML-1630 (Ec-5), APH(3')-1; assay: MIC, two-fold agar dilution; details: 18 h
# Experimental: as §1, §2, §3, §4
# [4] = system: Klebsiella pneumoniae (Kp-2); assay: MIC, two-fold agar dilution; details: 18 h
# Experimental: as §1, §2, §3, §4
# [5] = system: Proteus mirabilis (Pm-1); assay: MIC, two-fold agar dilution
# Experimental: as §1, §2, §3, §4
# [6] = system: Proteus morganii (Pg-1); assay: MIC, two-fold agar dilution; details: Morganella morganii, 18 h
# Experimental: as §1, §2, §3, §4
# [7] = system: Pseudomonas aeruginosa (Pa-3); assay: MIC, two-fold agar dilution; details: 18 h
# Experimental: as §1, §2, §3, §4
# [8] = system: Staphylococcus aureus 209P (Sa-1); assay: MIC, two-fold agar dilution; details: 18 h
# Experimental: as §1, §2, §3, §4
# [9] = system: Escherichia coli (Ec-9), AAC(6')-1; assay: MIC, two-fold agar dilution; details: 18 h, Table 3, Mueller-Hinton agar, 10^-4 dilution, enzyme AAC(6')-1
# [10] = system: Neisseria gonorrhoeae (Ng-1); assay: MIC, two-fold agar dilution; details: 18 h, Table 3, GC agar, 10^-2 dilution
# [11] = system: Acidoaminococcus fermentans ATCC 25085 (Ae-1); assay: MIC against anaerobic bacteria; details: 18 h; Table 4; GAM Medium, pH 7
# [12] = system: Clostridium chauvoei (Ch-1); assay: MIC against anaerobic bacteria; details: 18 h, Table 4, GAM Medium, pH 7
# Experimental: as §1
# [13] = system: Propionibacterium acnes (Pc-102); assay: MIC against anaerobic bacteria; details: Cutibacterium acnes, 18 h; Table 4; GAM Medium, pH 7
# Experimental: as §1
# [14] = system: Clostridium perfringens (Cp-1); assay: microbe, parasite or virus in culture; details: 18 h, pH 7
# [15] = system: anaerobic organisms; assay: in vitro activity against anaerobic bacteria, overall statement; details: most of the anaerobic organisms tested
# [16] = Table 3, Mueller-Hinton agar, 10^-4 dilution
# [17] = pH 6, Table 6, Mueller-Hinton Agar, 10^-4 dilution, pH 6
# [18] = pH 7, Table 5, Mueller-Hinton Agar, pH 7, inoculum 10^0 dil.
# [19] = pH 7, Table 5, Mueller-Hinton Agar, pH 7, inoculum 10^-2 dil.
# [20] = pH 7, Table 5, Mueller-Hinton Agar, pH 7, inoculum 10^-4 dil.
# [21] = pH 7, Table 6, Mueller-Hinton Agar, 10^-4 dilution, pH 7
# [22] = pH 7, Table 7, pH 7, 10^-4 dilution, BHIA
# [23] = pH 7, Table 7, pH 7, 10^-4 dilution, HIA
# [24] = pH 7, Table 7, pH 7, 10^-4 dilution, MHA
# [25] = pH 7, Table 7, pH 7, 10^-4 dilution, NA
# [26] = pH 8, Table 6, Mueller-Hinton Agar, 10^-4 dilution, pH 8
compound,measurement,setting,value
C=C1OC(OC2C(CO)OC(Oc3ccc(C(=O)NCCCNCCCCNCCCCN)cc3)C2O)C(O)C(OC2OC(CO)C(OC3OC(C)C(N)C(O)C3NC(=O)C(C)N)C(O)C2O)C1O (centres unmarked) [Bu-2349A],MIC,[1]; [16],1.6 µg/mL
same,MIC,[1]; [17],50 µg/mL
same,MIC,[1]; [18],6.3 µg/mL
same,MIC,[1]; [19],3.1 µg/mL
same,MIC,[1]; [20],3.1 µg/mL
same,MIC,[1]; [21],3.1 µg/mL
same,MIC,[1]; [22],6.3 µg/mL
same,MIC,[1]; [23],1.6 µg/mL
same,MIC,[1]; [24],3.1 µg/mL
same,MIC,[1]; [25],0.8 µg/mL
same,MIC,[1]; [26],1.6 µg/mL
same,MIC,[2]; [16],1.6 µg/mL
same,MIC,[2]; [17],25 µg/mL
same,MIC,[2]; [18],6.3 µg/mL
same,MIC,[2]; [19],3.1 µg/mL
same,MIC,[2]; [20],3.1 µg/mL
same,MIC,[2]; [21],3.1 µg/mL
same,MIC,[2]; [22],6.3 µg/mL
same,MIC,[2]; [23],1.6 µg/mL
same,MIC,[2]; [24],3.1 µg/mL
same,MIC,[2]; [25],3.1 µg/mL
same,MIC,[2]; [26],1.6 µg/mL
same,MIC,"[3]; Table 3, Mueller-Hinton agar, 10^-4 dilution, enzyme APH(3')-1",1.6 µg/mL
same,MIC,[3]; [17],50 µg/mL
same,MIC,[3]; [18],6.3 µg/mL
same,MIC,[3]; [19],3.1 µg/mL
same,MIC,[3]; [20],3.1 µg/mL
same,MIC,[3]; [21],3.1 µg/mL
same,MIC,[3]; [22],3.1 µg/mL
same,MIC,[3]; [23],1.6 µg/mL
same,MIC,[3]; [24],3.1 µg/mL
same,MIC,[3]; [25],1.6 µg/mL
same,MIC,[3]; [26],1.6 µg/mL
same,MIC,"[4]; Table 3, Mueller-Hinton agar, 10^-4 dilution, read-out: MIC",3.1 µg/mL
same,MIC,"[4]; pH 6, Table 6, Mueller-Hinton Agar, 10^-4 dilution, pH 6, read-out: MIC",50 µg/mL
same,MIC,[4]; pH 7,12.5 µg/mL
same,MIC,"[4]; pH 7, Table 5, Mueller-Hinton Agar, pH 7, inoculum 10^-2 dil., read-out: MIC",6.3 µg/mL
same,MIC,"[4]; pH 7, Table 5, Mueller-Hinton Agar, pH 7, inoculum 10^-4 dil., read-out: MIC",3.1 µg/mL
same,MIC,"[4]; pH 7, Table 6, Mueller-Hinton Agar, 10^-4 dilution, pH 7, read-out: MIC",3.1 µg/mL
same,MIC,"[4]; pH 7, Table 7, pH 7, 10^-4 dilution, BHIA, read-out: MIC",3.1 µg/mL
same,MIC,"[4]; pH 7, Table 7, pH 7, 10^-4 dilution, HIA, read-out: MIC",1.6 µg/mL
same,MIC,"[4]; pH 7, Table 7, pH 7, 10^-4 dilution, MHA, read-out: MIC",3.1 µg/mL
same,MIC,"[4]; pH 7, Table 7, pH 7, 10^-4 dilution, NA, read-out: MIC",1.6 µg/mL
same,MIC,"[4]; pH 8, Table 6, Mueller-Hinton Agar, 10^-4 dilution, pH 8, read-out: MIC",3.1 µg/mL
same,MIC,"[5]; Proteus mirabilis, 18 h, Table 3, Mueller-Hinton agar, 10^-4 dilution, read-out: MIC",6.3 µg/mL
same,MIC,"[5]; Proteus mirabilis, 18 h, pH 6, Table 6, Mueller-Hinton Agar, 10^-4 dilution, pH 6, read-out: MIC",> 50 µg/mL
same,MIC,"[5]; Proteus mirabilis, 18 h, pH 7",12.5 µg/mL
same,MIC,"[5]; Proteus mirabilis, 18 h, pH 7, Table 5, Mueller-Hinton Agar, pH 7, inoculum 10^0 dil., read-out: MIC",50 µg/mL
same,MIC,"[5]; Proteus mirabilis, 18 h, pH 7, Table 5, Mueller-Hinton Agar, pH 7, inoculum 10^-2 dil., read-out: MIC",25 µg/mL
same,MIC,"[5]; Proteus mirabilis, 18 h, pH 7, Table 7, pH 7, 10^-4 dilution, HIA, read-out: MIC",6.3 µg/mL
same,MIC,"[5]; Proteus mirabilis, 18 h, pH 7, Table 7, pH 7, 10^-4 dilution, MHA, read-out: MIC",6.3 µg/mL
same,MIC,"[5]; Proteus mirabilis, 18 h, pH 7, Table 7, pH 7, 10^-4 dilution, NA, read-out: MIC",3.1 µg/mL
same,MIC,"[5]; Proteus mirabilis, 18 h, pH 8",12.5 µg/mL
same,MIC,"[5]; Table 6, Mueller-Hinton Agar, 10^-4 dilution, pH 7",12.5 µg/mL
same,MIC,"[5]; Table 7, pH 7, 10^-4 dilution, BHIA",12.5 µg/mL
same,MIC,[6]; [16],25 µg/mL
same,MIC,[6]; [17],> 50 µg/mL
same,MIC,[6]; [18],> 50 µg/mL
same,MIC,[6]; [19],50 µg/mL
same,MIC,[6]; [20],25 µg/mL
same,MIC,[6]; [21],25 µg/mL
same,MIC,[6]; [22],25 µg/mL
same,MIC,[6]; [23],25 µg/mL
same,MIC,[6]; [24],25 µg/mL
same,MIC,[6]; [25],6.3 µg/mL
same,MIC,[6]; [26],25 µg/mL
same,MIC,[7]; [16],25 µg/mL
same,MIC,[7]; [17],> 50 µg/mL
same,MIC,[7]; [18],> 50 µg/mL
same,MIC,[7]; [19],50 µg/mL
same,MIC,[7]; [20],25 µg/mL
same,MIC,[7]; [21],25 µg/mL
same,MIC,[7]; [22],25 µg/mL
same,MIC,[7]; [23],12.5 µg/mL
same,MIC,[7]; [24],50 µg/mL
same,MIC,[7]; [25],6.3 µg/mL
same,MIC,[7]; [26],12.5 µg/mL
same,MIC,[8]; [16],3.1 µg/mL
same,MIC,[8]; [17],50 µg/mL
same,MIC,[8]; [18],6.3 µg/mL
same,MIC,[8]; [19],3.1 µg/mL
same,MIC,[8]; [20],3.1 µg/mL
same,MIC,[8]; [21],3.1 µg/mL
same,MIC,[8]; [22],3.1 µg/mL
same,MIC,[8]; [23],1.6 µg/mL
same,MIC,[8]; [24],3.1 µg/mL
same,MIC,[8]; [25],1.6 µg/mL
same,MIC,[8]; [26],1.6 µg/mL
same,MIC,[9],0.8 µg/mL
same,MIC,[10],> 100 µg/mL
same,MIC,[11],50 µg/mL
same,MIC,[12],> 100 µg/mL
same,MIC,[13],12.5 µg/mL
same,MIC,[14],> 100 µg/mL
same,activity against anaerobic organisms,[15],inactive
